Assays:
[1] = biological target: human sodium channel Nav 1.8 (Homo sapiens (Human), UniProt Q9Y5Y9); assay: Automated whole-cell voltage-clamp (ScreenPatch 384P), Nav 1.8 sodium current, Protocol 2; format: cell-based; settings: read-out: Nav1.8 IC50
Experimental: (§1) Biological assays were performed on Chinese hamster ovary (CHO) cells expressing the human sodium channels Nav 1.8 and Nav 1.7 stably.
(§2) The experimental voltage-clamp protocol using the whole cell configuration was established on the automated ScreenPatch® 384P platform (SP384PE, Nanion Technologies, Livingston, NJ) and recording of the results was performed with a Nanion 384-well Patch Clamp chip (NPC) (Nanion Technologies, Livingston, NJ).
(§3) Compounds of Formula (I), were diluted in eight concentrations in the extracellular solution composed of physiological saline, buffered with HEPES (mM): NaCl, 137; KCl, 4; CaCl2, 3.8; MgCl2, 1; HEPES, 10; Glucose, 10; pH 7.4. The […], 50; CsF, 90; MgCl2, 5; EGTA, 5; HEPES, 10; pH 7.2. The duration of exposure of each compound with the cells expressing Nav 1.7 or Nav 1.8 was at least five minutes and the assays were performed at room temperature.
(§4) The measurements of the sodium currents of Nav 1.8 and Nav 1.7 were obtained using the voltage protocols described below: • Protocol 1: A holding voltage of-90 mV was established followed by a voltage phase of 200 ms to-120 mV, followed by a voltage step of 10 mV for 1 second for Nav 1.8 or 0 mV for Nav 1.7, followed by a step of-100 mV for 20 ms, followed by a step of 20 ms for 10 mV for Nav 1.8 or 0 mV for Nav 1.7 (TP1A) before returning to the holding voltage of-90 mV. • Protocol 2: A holding voltage of-100 mV was established followed by an inactivation voltage step at −40 mV for 8 seconds, followed by a −100 mV step for 20 ms, followed by a 20 ms step for 10 mV for Nav 1.8 or 0 mV for Nav 1.7 (TP1A) before returning to the holding voltage of-100 mV.
(§5) Protocols were repeated at a frequency of 0.1 Hz (Protocol 1) or 0.05 Hz (Protocol 2) and current amplitude was quantified over the TP1A phase log. The variation in the peak amplitude of the current was evaluated according to the Formula described below, after exposure of the cells expressing the channels, at each concentration of the different compounds:
(§6) where ITP1A,basal, and ITP1A,molecule represent the entry peaks of sodium currents into TP1A prior to exposure to the compound and in the presence of the compound, respectively.
(§7) The decrease in peak current amplitude, after exposure of the cells to the compounds, was used to calculate the percent relative blocking of the channels relative to the positive control according to the Formula below: […]
(§8) where % V and % CP represent the averages of the values of current inhibition with a vehicle (DMSO) and positive controls, respectively. The sodium currents of the positive control were considered as 100%.
(§9) where [Test] represents the concentration of the evaluated molecule, IC50 is the concentration of the compound that generates half of the maximum inhibition, N is the Hill's coefficient and % Block′ is the percentage of the sodium channel current (Nav 1.8 and Nav 1.7) inhibited at each concentration of the evaluated molecule. Data were obtained by non linear least squares regression with XL fit for Excel (Microsoft, Redmond, WA).
(§10) Compounds were tested in at least one assay to obtain the IC50 value.

[2] = biological target: human sodium channel Nav 1.7 (Homo sapiens (Human), UniProt Q15858); assay: Automated whole-cell voltage-clamp (ScreenPatch 384P), Nav 1.7 sodium current, Protocol 2; format: cell-based; settings: read-out: Nav1.7 IC50
Experimental: as §1, §2, §3, §4, §5, §6, §7, §8, §9, §10

Sequence of human sodium channel Nav 1.7 (Q15858 whole entry): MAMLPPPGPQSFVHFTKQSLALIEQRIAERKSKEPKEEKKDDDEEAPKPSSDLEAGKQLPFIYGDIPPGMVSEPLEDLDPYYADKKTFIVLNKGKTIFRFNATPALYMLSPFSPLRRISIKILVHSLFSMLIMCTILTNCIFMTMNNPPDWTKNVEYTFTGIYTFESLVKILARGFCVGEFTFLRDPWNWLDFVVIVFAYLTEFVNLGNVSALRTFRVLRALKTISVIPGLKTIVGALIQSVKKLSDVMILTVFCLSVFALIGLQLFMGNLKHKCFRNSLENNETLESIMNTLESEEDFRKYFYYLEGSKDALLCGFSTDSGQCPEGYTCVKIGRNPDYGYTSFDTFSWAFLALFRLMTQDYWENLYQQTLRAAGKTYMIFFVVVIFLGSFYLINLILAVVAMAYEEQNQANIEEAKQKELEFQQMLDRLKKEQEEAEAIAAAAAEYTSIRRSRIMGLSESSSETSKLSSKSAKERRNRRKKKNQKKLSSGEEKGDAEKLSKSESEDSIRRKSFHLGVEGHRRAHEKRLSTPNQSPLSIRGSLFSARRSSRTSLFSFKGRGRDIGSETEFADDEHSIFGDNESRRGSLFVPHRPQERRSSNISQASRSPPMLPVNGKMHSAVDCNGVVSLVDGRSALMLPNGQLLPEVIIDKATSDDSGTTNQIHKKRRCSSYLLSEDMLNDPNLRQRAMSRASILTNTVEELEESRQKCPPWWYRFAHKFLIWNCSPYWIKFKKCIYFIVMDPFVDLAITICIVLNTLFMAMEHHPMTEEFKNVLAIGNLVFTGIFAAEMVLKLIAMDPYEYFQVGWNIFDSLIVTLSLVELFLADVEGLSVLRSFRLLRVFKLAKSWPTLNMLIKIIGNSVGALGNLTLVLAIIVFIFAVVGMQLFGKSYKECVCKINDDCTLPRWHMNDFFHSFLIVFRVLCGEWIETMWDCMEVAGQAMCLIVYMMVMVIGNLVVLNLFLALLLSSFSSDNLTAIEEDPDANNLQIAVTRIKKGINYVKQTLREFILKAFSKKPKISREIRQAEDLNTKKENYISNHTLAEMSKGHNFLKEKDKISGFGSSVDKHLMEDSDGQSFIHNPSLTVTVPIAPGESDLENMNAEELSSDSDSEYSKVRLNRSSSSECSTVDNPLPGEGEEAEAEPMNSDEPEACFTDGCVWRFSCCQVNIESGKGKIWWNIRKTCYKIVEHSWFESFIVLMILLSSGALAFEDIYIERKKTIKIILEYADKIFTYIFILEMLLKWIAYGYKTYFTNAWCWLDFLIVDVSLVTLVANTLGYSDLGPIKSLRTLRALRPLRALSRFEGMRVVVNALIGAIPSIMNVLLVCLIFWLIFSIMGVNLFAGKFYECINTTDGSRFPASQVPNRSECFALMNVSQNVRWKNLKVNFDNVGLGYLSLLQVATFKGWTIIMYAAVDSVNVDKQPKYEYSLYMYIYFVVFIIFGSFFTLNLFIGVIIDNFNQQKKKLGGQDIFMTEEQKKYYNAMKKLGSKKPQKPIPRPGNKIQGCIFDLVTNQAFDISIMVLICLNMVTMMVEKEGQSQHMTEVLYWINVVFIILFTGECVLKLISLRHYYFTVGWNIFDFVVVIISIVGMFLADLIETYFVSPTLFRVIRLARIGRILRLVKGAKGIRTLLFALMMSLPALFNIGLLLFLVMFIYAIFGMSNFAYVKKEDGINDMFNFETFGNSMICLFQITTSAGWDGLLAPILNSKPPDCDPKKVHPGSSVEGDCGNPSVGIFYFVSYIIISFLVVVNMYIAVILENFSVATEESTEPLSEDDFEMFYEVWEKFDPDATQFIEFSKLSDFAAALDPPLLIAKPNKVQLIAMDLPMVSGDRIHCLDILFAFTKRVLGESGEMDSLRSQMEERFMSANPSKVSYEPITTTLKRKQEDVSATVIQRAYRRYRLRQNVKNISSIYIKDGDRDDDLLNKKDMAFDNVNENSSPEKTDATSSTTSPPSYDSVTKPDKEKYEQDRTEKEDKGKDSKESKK
Sequence of human sodium channel Nav 1.8 (Q9Y5Y9 whole entry): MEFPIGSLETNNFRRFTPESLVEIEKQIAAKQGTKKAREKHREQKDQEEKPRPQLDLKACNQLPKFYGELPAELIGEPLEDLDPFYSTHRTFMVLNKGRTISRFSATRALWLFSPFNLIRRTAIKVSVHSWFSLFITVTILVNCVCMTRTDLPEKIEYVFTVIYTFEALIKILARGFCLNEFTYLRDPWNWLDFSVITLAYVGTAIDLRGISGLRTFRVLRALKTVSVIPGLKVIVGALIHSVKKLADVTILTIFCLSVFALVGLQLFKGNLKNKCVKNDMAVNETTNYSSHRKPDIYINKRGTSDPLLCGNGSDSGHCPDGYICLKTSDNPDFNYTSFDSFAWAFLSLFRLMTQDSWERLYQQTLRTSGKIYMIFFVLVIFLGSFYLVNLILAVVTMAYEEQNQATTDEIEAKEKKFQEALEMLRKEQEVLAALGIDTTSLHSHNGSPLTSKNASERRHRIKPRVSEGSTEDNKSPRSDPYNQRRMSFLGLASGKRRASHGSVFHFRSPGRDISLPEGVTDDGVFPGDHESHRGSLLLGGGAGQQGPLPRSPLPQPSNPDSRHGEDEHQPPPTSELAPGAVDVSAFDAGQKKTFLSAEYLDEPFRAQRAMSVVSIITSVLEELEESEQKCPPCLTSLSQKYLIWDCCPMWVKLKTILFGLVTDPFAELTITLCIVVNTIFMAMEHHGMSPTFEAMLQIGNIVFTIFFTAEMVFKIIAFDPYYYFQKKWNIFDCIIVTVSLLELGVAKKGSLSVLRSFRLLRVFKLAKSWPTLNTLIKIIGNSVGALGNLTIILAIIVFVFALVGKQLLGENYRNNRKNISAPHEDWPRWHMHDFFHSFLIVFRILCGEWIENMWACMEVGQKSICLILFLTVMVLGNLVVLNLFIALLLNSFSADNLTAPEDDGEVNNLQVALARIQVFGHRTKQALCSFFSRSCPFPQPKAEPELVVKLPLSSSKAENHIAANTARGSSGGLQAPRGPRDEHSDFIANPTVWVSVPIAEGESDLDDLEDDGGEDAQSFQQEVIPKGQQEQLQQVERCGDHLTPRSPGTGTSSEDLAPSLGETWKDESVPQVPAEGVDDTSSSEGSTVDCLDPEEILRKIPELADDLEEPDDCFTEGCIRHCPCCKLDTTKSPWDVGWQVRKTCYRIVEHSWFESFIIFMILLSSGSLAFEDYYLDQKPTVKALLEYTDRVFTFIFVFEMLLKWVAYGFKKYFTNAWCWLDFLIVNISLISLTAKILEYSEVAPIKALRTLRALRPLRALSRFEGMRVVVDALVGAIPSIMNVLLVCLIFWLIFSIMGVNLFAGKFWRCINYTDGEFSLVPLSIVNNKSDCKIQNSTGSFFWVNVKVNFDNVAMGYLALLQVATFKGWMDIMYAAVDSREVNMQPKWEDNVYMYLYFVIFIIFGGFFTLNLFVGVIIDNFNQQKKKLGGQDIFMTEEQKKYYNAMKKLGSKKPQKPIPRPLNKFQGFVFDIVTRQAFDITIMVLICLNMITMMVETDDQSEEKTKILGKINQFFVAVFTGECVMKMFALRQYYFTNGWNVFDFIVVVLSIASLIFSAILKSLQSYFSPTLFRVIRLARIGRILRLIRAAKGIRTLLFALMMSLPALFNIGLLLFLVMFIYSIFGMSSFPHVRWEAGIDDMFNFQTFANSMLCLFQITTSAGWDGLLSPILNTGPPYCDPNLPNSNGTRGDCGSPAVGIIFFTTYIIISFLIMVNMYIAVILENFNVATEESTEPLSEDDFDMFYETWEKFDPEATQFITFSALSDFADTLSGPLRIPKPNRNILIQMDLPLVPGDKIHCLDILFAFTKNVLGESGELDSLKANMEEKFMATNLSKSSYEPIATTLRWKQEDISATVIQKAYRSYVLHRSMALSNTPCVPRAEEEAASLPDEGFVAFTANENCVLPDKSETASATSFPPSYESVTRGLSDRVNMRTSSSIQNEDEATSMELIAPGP

Compound | IC50 [1] [nM] | IC50 [2] [nM]
COc1ccc(-c2cnc(C(=O)N/N=C/c3cc(OC)cc(OC)c3)cn2)cc1 [Compound 91, (E)-N′-(3,5-dimethoxybenzylidene)-5-(4-methoxyphenyl)pyrazine-2-carbohydrazide] | > 1000 | > 10000
Cc1cc(C)cc(/C=N/NC(=O)c2cncc(-c3ccc(OCC(C)C)cc3)n2)c1 [Compound 86, (E)-N′-(3,5-dimethylbenzylidene)-6-(4-isobutoxyphenyl)pyrazine-2-carbohydrazide] | 209 | 141
CCOc1cc(/C=N/NC(=O)c2cncc(-c3ccc(OC)cc3)n2)cc(OCC)c1 [Compound 67, (E)-N′-(3,5-diethoxybenzylidene)-6-(4-methoxyphenyl)pyrazine-2-carbohydrazide] | 747 | 1930
COc1ccc(-c2cncc(C(=O)N/N=C/c3cccc(C(F)(F)F)c3)n2)cc1 [Compound 56, (E)-6-(4-methoxyphenyl)-N′-(3-(trifluoromethyl)benzylidene)pyrazine-2-carbohydrazide] | 462 | 5480
COc1ccc(-c2cncc(C(=O)N/N=C/c3cccnc3)n2)cc1 [Compound 77, (E)-6-(4-methoxyphenyl)-N′-(pyridin-3-ylmethylene)pyrazine-2-carbohydrazide] | > 1000 | > 10000
COc1ccc(-c2cncc(C(=O)N/N=C/c3ccc(Br)cc3)n2)cc1 [Compound 62, (E)-N′-(4-bromobenzylidene)-6-(4-methoxyphenyl)pyrazine-2-carbohydrazide] | 761 | > 10000
COc1ccc(-c2cncc(C(=O)N/N=C/c3ccc(N(C)C)cc3)n2)cc1 [Compound 64] | 1000 | 8160
COc1ccc(-c2cncc(C(=O)N/N=C/c3ccnc(C(N)=O)c3)n2)cc1 [Compound 36, (E)-4-((2-(6-(4-methoxyphenyl)pyrazine-2-carobnyl)hydrazono)methyl)picolinamide] | > 1000 | > 10000
COc1ccc(-c2cncc(C(=O)N/N=C/c3ccccc3Br)n2)cc1 [Compound 48, (E)-N′-(2-bromobenzylidene)-6-(4-methoxyphenyl)pyrazine-2-carbohydrazide] | 233 | 798
COc1ccc(-c2cncc(C(=O)N/N=C/c3ccc(Cl)cc3)n2)cc1 [Compound 61, (E)-N′-(4-chlorobenzylidene)-6-(4-methoxyphenyl)pyrazine-2-carbohydrazide] | 614 | 7020
CCOc1ccc(-c2cncc(C(=O)N/N=C/c3cc(F)cc(OC)c3)n2)cc1 [Compound 15, (E)-6-(4-ethoxyphenyl)-N′-(3-fluoro-5-methoxybenzylidene)pyrazine-2-carbohydrazide] | 25.2 | 243
CCOc1ccc(-c2cncc(C(=O)N/N=C/c3cc(OC)cc(OC)c3)n2)cc1 [Compound 2, (E)-N′-(3,5-dimethoxybenzylidene)-6-(4-ethoxyphenyl)pyrazine-2-carbohydrazide] | 32.5 | 239
COc1ccc(-c2cncc(C(=O)N/N=C/c3ccc(F)c(C(N)=O)c3)n2)cc1 [Compound 35, (E)-2-fluoro-5-((2-(6-(4-methoxyphenyl)pyrazine-2-carbonyl)hydrazono)methyl)benzamide] | > 1000 | > 10000
COc1ccc(-c2cncc(C(=O)N/N=C/c3ccc(F)cc3)n2)cc1 [Compound 60, (E)-N′-(4-fluorobenzylidene)-6-(4-methoxyphenyl)pyrazine-2-carbohydrazide] | 340 | 5190

More lines, now with the values ahead:

IC50 [1] [nM] | IC50 [2] [nM] | Compound
> 1000 | > 10000 | COc1cc(/C=N/NC(=O)c2cncc(-c3ccccc3OC3CCCC3)n2)cc(OC)c1 [Compound 161, (E)-6-(2-(cyclopentyloxy)phenyl)-N′-(3,5-dimethoxybenzylidene)pyrazine-2-carbohydrazide]
238 | 737 | CCOc1ccc(-c2cncc(C(=O)N/N=C/c3cc(OC)cc(OC)c3)n2)cc1Cl [Compound 117, (E)-6-(3-chloro-4-ethoxyphenyl)-N′-(3,5-dimethoxybenzylidene)pyrazine-2-carbohydrazide]
> 300 | > 300 | CCOc1ccc(-c2cnc(OC)c(C(=O)N/N=C/c3cc(OC)cc(OC)c3)n2)cc1 [Compound 145, (E)-N′-(3,5-dimethoxybenzylidene)-6-(4-ethoxyphenyl)-3-methoxypyrazine-2-carbohydrazide]
> 1000 | > 10000 | COc1cc(/C=N/NC(=O)c2cncc(-c3ccc(OCCN(C)C)cc3)n2)cc(OC)c1 [Compound 151, (E)-N′-(3,5-dimethoxybenzylidene)-6-(4-(2-(dimethylamino)ethoxy)phenyl)pyrazine-2-carbohydrazide]
> 1000 | > 10000 | CCOc1ccc(-c2cncc(C(=O)N/N=C/c3ccccc3)n2)cc1 [Compound 170, (E)-N′-benzylidene-6-(4-ethoxyphenyl)pyrazine-2-carbohydrazide]
> 1000 | > 10000 | COc1cc(/C=N/NC(=O)c2cncc(-c3cccc(Cl)c3)n2)cc(OC)c1 [Compound 93, (E)-6-(3-chlorophenyl)-N′-(3,5-dimethoxybenzylidene)pyrazine-2-carbohydrazide]
459 | > 10000 | COc1cc(/C=N/NC(=O)c2cncc(-c3ccccc3OC)n2)cc(OC)c1 [Compound 102, (E)-N′-(3,5-dimethoxybenzylidene)-6-(2-methoxyphenyl)pyrazine-2-carbohydrazide]
> 1000 | > 10000 | COc1cc(/C=N/NC(=O)c2cncc(N3CCC(F)(F)C(C)C3)n2)cc(OC)c1 (stereo not drawn) [Compound 169, (E)-6-(4,4-difluoro-3-methylpiperidin-1-yl)-N′-(3,5-dimethoxybenzylidene)pyrazine-2-carbohydrazide]
119 | 541 | CCOc1ccc(-c2cncc(C(=O)N/N=C/c3cccc(OC)c3)n2)c(Cl)c1 [Compound 111, (E)-6-(2-chloro-4-ethoxyphenyl)-N′-(3-methoxybenzylidene)pyrazine-2-carbohydrazide]
320 | 6410 | COc1ccc(-c2cncc(C(=O)N/N=C/C3CCCCCC3)n2)cc1 [Compound 181, (E)-N′-(cycloheptylmethylene)-6-(4-methoxyphenyl)pyrazine-2-carbohydrazide]
> 300 | > 300 | CCOc1ccc(-c2cnc(CC)c(C(=O)N/N=C/c3cc(OC)cc(OC)c3)n2)cc1 [Compound 144, (E)-N′-(3,5-dimethoxybenzylidene)-6-(4-ethoxyphenyl)-3-ethylpyrazine-2-carbohydrazide]
33.7 | 44.6 | CCOc1ccc(-c2cncc(C(=O)N/N=C/c3cc(F)cc(OC)c3)n2)c(OC)c1 [Compound 105, (E)-6-(4-ethoxy-2-methoxypehnyl)-N′-(3-fluoro-5-methoxybenzylidene)pyrazine-2-carbohydrazide]
73.2 | 181 | COc1cc(/C=N/NC(=O)c2cncc(-c3ccc(OC)cc3OC)n2)cc(OC)c1 [Compound 124, (E)-N′-(3,5-dimethoxybenzylidene)-6-(2,4-dimethoxyphenyl)pyrazine-2-carbohydrazide]
> 1000 | > 10000 | CCOc1ccc(-c2cncc(C(=O)N/N=C/c3cc(CCO)cc(OC)c3)n2)cc1 [Compound 214]
963 | > 1000 | COc1cc(/C=N/NC(=O)c2cncc(-c3ccc(C(F)F)cc3)n2)cc(OC)c1 [Compound 177, (E)-6-(4-(difluoromethyl)phenyl)-N′-(3,5-dimethoxybenzylidene)pyrazine-2-carbohydrazide]
> 1000 | > 10000 | COc1cc(/C=N/NC(=O)c2cncc(OC)n2)cc(OC)c1 [Compound 140, (E)-N′-(3,5-dimethoxybenzylidene)-6-methoxypyrazine-2-carbohydrazide]

— US20240335442A1 (Eurofarma Laboratórios S.A., priority 2021, published 2024)
